Read-outs that look alike come from different tables or passages of the source.
Legend:
δ-opioid receptor (DOR) [1] = target: T1, δ-opioid receptor (DOR) (Rattus norvegicus, UniProt P33533); settings: cited from earlier work
mouse [2] = test: In vivo warm water tail withdrawal; settings: ip, up to 10 mg/kg
κ-opioid receptor (KOR) = κ-opioid receptor (KOR) (Homo sapiens, UniProt P41145); test: Stimulation of [35S]GTPγS binding at KOR; assay type: biochemical; settings: percent maximal stimulation relative to U69,593 at 10 μM
Sequence of κ-opioid receptor (KOR) (P41145 whole entry): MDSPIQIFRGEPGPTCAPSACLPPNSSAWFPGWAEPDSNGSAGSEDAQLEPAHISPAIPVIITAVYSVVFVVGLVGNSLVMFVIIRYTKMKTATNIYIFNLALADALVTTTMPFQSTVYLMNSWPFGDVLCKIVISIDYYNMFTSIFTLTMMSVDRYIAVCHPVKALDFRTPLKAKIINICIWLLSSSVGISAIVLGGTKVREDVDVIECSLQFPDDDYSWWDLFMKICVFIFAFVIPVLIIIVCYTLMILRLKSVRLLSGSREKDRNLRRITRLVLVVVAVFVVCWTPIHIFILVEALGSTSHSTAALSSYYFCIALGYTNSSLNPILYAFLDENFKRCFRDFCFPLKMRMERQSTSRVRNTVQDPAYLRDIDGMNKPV

δ-opioid receptor (DOR) [3] = target: T1, δ-opioid receptor (DOR); test: Stimulation of [35S]GTPγS binding at DOR; assay type: biochemical; settings: percent maximal stimulation relative to DPDPE at 10 μM
mouse [4] = settings: WWTW assay; cited from earlier work

T1 sequence (P33533 whole entry): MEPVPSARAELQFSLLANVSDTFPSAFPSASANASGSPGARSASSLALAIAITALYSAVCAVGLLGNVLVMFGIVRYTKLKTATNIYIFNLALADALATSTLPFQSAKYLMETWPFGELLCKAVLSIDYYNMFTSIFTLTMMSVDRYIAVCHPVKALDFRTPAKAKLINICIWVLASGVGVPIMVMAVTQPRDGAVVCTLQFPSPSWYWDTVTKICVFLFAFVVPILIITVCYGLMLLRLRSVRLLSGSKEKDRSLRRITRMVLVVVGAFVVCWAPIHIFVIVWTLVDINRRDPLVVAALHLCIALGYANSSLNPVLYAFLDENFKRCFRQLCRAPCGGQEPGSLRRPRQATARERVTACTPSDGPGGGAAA

SMILES: CC(=O)N1CC[C@@H](NC(=O)[C@@H](N)Cc2c(C)cc(O)cc2C)c2cc(Cc3ccccc3)ccc21 [4b, (S)-N-((R)-1-Acetyl-6-benzyl-1,2,3,4-tetrahydroquinolin-4-yl)-2-amino-3-(4-hydroxy-2,6-dimethylphenyl)propanamide]
- % stimulation DOR (δ-opioid receptor (DOR) [1]): 26%

SMILES: Cc1cc(O)cc(C)c1C[C@H](N)C(=O)N[C@@H]1CCN(C(=O)C2CC2)c2ccc(Cc3ccccc3)cc21 [4f, (S)-2-Amino-N-((R)-6-benzyl-1-(cyclopropanecarbonyl)-1,2,3,4-tetrahydroquinolin-4-yl)-3-(4-hydroxy-2,6-dimethylphenyl)propanamide]
- antinociception in the WWTW assay (mouse [2]): partial antinociception

SMILES: Cc1cc(O)cc(C)c1C[C@H](N)C(=O)N[C@@H]1CCN(C(=O)C2CCC2)c2ccc(Cc3ccccc3)cc21 [4g, (S)-2-Amino-N-((R)-6-benzyl-1-(cyclobutanecarbonyl)-1,2,3,4-tetrahydroquinolin-4-yl)-3-(4-hydroxy-2,6-dimethylphenyl)propanamide]
- % stimulation KOR (κ-opioid receptor (KOR)): no efficacy

SMILES: COC(=O)N1CC[C@@H](NC(=O)[C@@H](N)Cc2c(C)cc(O)cc2C)c2cc(Cc3ccccc3)ccc21 [4h, Methyl (R)-4-((S)-2-Amino-3-(4-hydroxy-2,6-dimethylphenyl)propanamido)-6-benzyl-3,4-dihydroquinoline-1(2H)-carboxylate]
- antinociception in the WWTW assay (mouse [2]): full in vivo antinociception

SMILES: Cc1cc(O)cc(C)c1C[C@H](N)C(=O)N[C@@H]1CCN(C(=O)c2ccccc2)c2ccc(Cc3ccccc3)cc21 [4j, (S)-2-Amino-N-((R)-1-benzoyl-6-benzyl-1,2,3,4-tetrahydroquinolin-4-yl)-3-(4-hydroxy-2,6-dimethylphenyl)propanamide]
- % stimulation DOR (δ-opioid receptor (DOR) [3]): no stimulation

SMILES: CC(=O)N1CC[C@@H](NC(=O)[C@@H](N)Cc2c(C)cc(O)cc2C)c2cc(Cc3ccc4ccccc4c3)ccc21 [15b, (S)-N-((R)-1-Acetyl-6-(naphthalen-2-ylmethyl)-1,2,3,4-tetrahydroquinolin-4-yl)-2-amino-3-(4-hydroxy-2,6-dimethylphenyl)propanamide]
- duration of in vivo antinociception (mouse [4]): greater than 3 h
